Consider 13 molecules from US11339130B1 (Blade Therapeutics, Inc., priority 2016, dated 2022).

Bounds are passed on as bounds.

Assay [1] addresses T1, Human Calpain 2/NS1 (Homo sapiens, UniProt P17655).
T1 sequence (P17655 1-700): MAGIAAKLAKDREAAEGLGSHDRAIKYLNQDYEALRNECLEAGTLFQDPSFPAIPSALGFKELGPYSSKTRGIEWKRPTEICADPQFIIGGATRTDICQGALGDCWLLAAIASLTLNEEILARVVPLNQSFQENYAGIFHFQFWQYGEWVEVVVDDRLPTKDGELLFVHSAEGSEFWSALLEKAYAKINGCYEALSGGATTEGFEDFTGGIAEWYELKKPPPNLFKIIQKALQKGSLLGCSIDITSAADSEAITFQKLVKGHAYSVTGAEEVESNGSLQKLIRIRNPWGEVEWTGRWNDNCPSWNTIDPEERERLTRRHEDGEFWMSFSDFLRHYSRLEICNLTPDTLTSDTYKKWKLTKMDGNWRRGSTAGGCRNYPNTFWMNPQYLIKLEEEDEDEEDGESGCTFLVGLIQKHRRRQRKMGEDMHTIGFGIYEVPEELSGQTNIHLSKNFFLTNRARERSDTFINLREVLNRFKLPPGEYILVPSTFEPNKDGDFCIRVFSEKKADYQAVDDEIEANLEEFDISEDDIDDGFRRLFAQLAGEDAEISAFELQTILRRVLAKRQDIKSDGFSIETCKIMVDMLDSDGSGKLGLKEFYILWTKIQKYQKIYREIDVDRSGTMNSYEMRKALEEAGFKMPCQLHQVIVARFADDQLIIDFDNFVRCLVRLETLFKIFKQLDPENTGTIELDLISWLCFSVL
T1 sequence (P04632 1-268 partner): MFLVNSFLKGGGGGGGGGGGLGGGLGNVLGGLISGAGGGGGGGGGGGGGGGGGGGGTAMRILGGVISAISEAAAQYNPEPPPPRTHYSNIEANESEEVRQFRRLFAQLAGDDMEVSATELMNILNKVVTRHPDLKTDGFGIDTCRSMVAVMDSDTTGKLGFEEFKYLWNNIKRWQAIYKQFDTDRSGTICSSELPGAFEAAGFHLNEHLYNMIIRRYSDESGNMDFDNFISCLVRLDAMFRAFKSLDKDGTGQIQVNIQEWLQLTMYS
As to the kind of experiment: Calpain inhibition continuous fluorescence (FRET) assay, Human Calpain 2/NS1. Type of assay: biochemical. The following applies: read-out: Human Calpain 2/NS1 IC50. In a few lines:
(§1)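 Human calpains 1, 2 and 9 preincubated with inhibitor at 25 °C in 50 mM Tris pH 7.5, 100 mM NaCl, 1 mM DTT; reaction started with 5-FAM/QXL 520 FRET peptide plus CaCl2 for activation. Fluorescence (490/520 nm) followed 10 min; rates from 1-5 min slopes fitted to 4-parameter logistic for IC50.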

Assay [2] has as its system Calpain activity in SH-SY5Y cells (SBDP-150). As to the kind of experiment: SH-SY5Y Spectrin western blot assay (SBDP-150 breakdown product, A23187-induced). The assay is classed as cell-based. The following applies: Homo sapiens; SH-SY5Y cells, A23187-induced SBDP-150, western blot; read-out: SH-SY5Y Spectrin IC50. For orientation: In western blotting, separated proteins are transferred to a membrane and probed.

Assay [3] has as its target T2, Human Calpain 9/NS1 (Homo sapiens, UniProt O14815).
T2 sequence (O14815 1-690): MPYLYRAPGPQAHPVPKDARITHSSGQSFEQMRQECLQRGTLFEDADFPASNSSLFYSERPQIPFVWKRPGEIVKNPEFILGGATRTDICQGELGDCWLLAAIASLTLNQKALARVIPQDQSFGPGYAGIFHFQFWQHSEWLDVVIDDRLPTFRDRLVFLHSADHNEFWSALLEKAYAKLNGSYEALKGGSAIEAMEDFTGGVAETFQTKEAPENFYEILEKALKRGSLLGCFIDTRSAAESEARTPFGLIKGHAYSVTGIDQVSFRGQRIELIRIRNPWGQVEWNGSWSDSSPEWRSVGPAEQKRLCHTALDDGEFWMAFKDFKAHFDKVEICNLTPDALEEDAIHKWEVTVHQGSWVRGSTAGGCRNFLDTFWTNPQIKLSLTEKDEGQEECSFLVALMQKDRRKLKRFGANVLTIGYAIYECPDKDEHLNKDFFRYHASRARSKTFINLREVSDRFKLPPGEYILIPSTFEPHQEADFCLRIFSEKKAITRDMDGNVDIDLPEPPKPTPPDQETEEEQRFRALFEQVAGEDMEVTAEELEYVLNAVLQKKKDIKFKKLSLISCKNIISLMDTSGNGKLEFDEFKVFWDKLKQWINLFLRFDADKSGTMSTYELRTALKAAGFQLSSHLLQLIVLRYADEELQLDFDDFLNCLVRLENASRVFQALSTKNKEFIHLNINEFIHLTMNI
T2 sequence (P04632 1-268 partner): T1 sequence (P04632 1-268 partner)
Description: Calpain inhibition continuous fluorescence (FRET) assay, Human Calpain 9/NS1. Type of assay: biochemical. To be noted: read-out: Human Calpain 9/NS1 IC50. In short, it runs like this:
as §1

The test system of assay [4] is Calpain activity in SH-SY5Y cells. As to the kind of experiment: SH-SY5Y + AMC fluorescence assay (Suc-LLVY-AMC substrate). Type of assay: cell-based. The following applies: read-out: SH-SY5Y + AMC IC50.
For assay [5], the target named is T3, Human Calpain 1/NS1 (Homo sapiens, UniProt P07384).
T3 sequence (P07384 1-714): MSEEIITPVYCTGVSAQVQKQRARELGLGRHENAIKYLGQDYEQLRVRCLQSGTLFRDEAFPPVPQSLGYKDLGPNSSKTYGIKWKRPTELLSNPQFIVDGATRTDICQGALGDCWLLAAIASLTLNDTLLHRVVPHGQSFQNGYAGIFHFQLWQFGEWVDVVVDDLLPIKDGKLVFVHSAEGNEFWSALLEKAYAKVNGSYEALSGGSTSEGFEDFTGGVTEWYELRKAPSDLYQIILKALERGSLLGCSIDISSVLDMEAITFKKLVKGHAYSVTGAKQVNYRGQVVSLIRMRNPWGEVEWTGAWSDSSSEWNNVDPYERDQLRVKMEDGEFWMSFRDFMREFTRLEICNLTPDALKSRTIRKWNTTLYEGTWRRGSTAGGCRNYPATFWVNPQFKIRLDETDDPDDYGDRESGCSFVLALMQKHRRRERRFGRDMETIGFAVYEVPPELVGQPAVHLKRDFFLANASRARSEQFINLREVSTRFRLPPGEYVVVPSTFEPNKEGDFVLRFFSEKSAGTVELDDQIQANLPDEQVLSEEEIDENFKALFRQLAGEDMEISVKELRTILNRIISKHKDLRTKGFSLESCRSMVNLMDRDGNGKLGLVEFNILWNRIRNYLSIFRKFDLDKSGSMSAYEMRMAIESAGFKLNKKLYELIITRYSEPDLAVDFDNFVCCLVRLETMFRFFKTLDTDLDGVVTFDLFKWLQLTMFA
T3 sequence (P04632 1-268 partner): T1 sequence (P04632 1-268 partner)
As to the kind of experiment: Calpain inhibition continuous fluorescence (FRET) assay, Human Calpain 1/NS1. The assay is classed as biochemical. To be noted: read-out: Human Calpain 1/NS1 IC50. In short, it runs like this: as §1

`Cc1cccc(-c2nn(C)cc2C(=O)NC(Cc2ccccc2)C(=O)C(N)=O)c1F` (centres unmarked) [Compound 517, N-(4-amino-3,4-dioxo-1-phenylbutan-2-yl)-3-(2-fluoro-3-methylphenyl)-1-methyl-1H-pyrazole-4-carboxamide]: the IC50 in assay [1] was under 3 µM; in assay [2], 10 to 25 µM; in assay [3], under 3 µM; in assay [4], 10 to 25 µM; in assay [5], under 3 µM.

Take `Cn1cc(C(=O)NC(Cc2ccccc2)C(=O)C(N)=O)c(-c2cc(F)ccc2F)n1` (centres unmarked) [Compound 518, N-(4-amino-3,4-dioxo-1-phenylbutan-2-yl)-3-(2,5-difluorophenyl)-1-methyl-1H-pyrazole-4-carboxamide]: the IC50 in assay [1] was under 3 µM; in assay [2] it was 10 to 25 µM; in assay [3], under 3 µM; in assay [4] it was under 10 µM; in assay [5] it was under 3 µM.

For the molecule `Cn1cc(C(=O)NC(C=O)Cc2ccccc2)c(-c2ccccc2F)n1` (centres unmarked) [Compound 520, 3-(2-Fluorophenyl)-1-methyl-N-(1-oxo-3-phenylpropan-2-yl)-1H-pyrazole-4-carboxamide], the IC50 in assay [1] was under 3 µM; in assay [2], over 25 µM; in assay [3], under 3 µM; in assay [4], 10 to 25 µM; in assay [5] it was under 3 µM.

In the case of `Cc1ccncc1-c1nn(C(F)F)cc1C(=O)NC(Cc1ccccc1)C(=O)C(N)=O` (centres unmarked) [Compound 522, N-(4-amino-3,4-dioxo-1-phenylbutan-2-yl)-1-(difluoromethyl)-3-(4-methylpyridin-3-yl)-1H-pyrazole-4-carboxamide], the IC50 in assay [1] was under 3 µM; in assay [2], over 25 µM; in assay [3], under 3 µM; in assay [4] it was under 10 µM; in assay [5], under 3 µM.

Consider `Cc1ccc(C)c(-c2nn(C(F)F)cc2C(=O)NC(Cc2ccccc2)C(=O)C(N)=O)c1` (centres unmarked) [Compound 524, N-(4-amino-3,4-dioxo-1-phenylbutan-2-yl)-1-(difluoromethyl)-3-(2,5-dimethylphenyl)-1H-pyrazole-4-carboxamide], for which the IC50 was under 3 µM in assay [1]; 10 to 25 µM in assay [2]; under 3 µM in assay [3]; under 10 µM in assay [4]; under 3 µM in assay [5].

As for `NC(=O)C(=O)C(Cc1ccccc1)NC(=O)c1cn(C2CCCC2)nc1-c1ccccc1` (centres unmarked) [Compound 525, N-(4-amino-3,4-dioxo-1-phenylbutan-2-yl)-1-cyclopentyl-3-phenyl-1H-pyrazole-4-carboxamide], the IC50 in assay [1] was under 3 µM; in assay [2], over 25 µM; in assay [3], under 3 µM; in assay [4], under 10 µM; in assay [5], under 3 µM.

Consider `NC(=O)C(=O)C(Cc1ccccc1)NC(=O)c1cn(C2CCC2)nc1-c1ccccc1` (centres unmarked) [Compound 526, N-(4-amino-3,4-dioxo-1-phenylbutan-2-yl)-1-cyclobutyl-3-phenyl-1H-pyrazole-4-carboxamide], for which the IC50 is under 3 µM in assay [1]; over 25 µM in assay [2]; under 3 µM in assay [3]; under 10 µM in assay [4]; under 3 µM in assay [5].

Consider `NC(=O)C(=O)C(Cc1ccccc1)NC(=O)c1cn(-c2ccccc2F)nc1-c1ccccc1` (centres unmarked) [Compound 527, N-(4-amino-3,4-dioxo-1-phenylbutan-2-yl)-1-(2-fluorophenyl)-3-phenyl-1H-pyrazole-4-carb oxamide], for which the IC50 in assay [1] is under 3 µM; in assay [2] it was over 25 µM; in assay [3] it was under 3 µM; in assay [4], under 10 µM; in assay [5], under 3 µM.

Turning to `NC(=O)C(=O)C(Cc1ccccc1)NC(=O)c1cn(-c2ccc(F)cc2)nc1-c1ccccc1` (centres unmarked) [Compound 529, N-(4-amino-3,4-dioxo-1-phenylbutan-2-yl)-1-(4-fluorophenyl)-3-phenyl-1H-pyrazole-4-carb oxamide], the IC50 was under 3 µM in assay [1]; over 25 µM in assay [2]; under 3 µM in assay [3]; under 10 µM in assay [4]; under 3 µM in assay [5].

In the case of `Cn1cc(C(=O)NC(Cc2ccccc2)C(=O)C(N)=O)c(-n2ncc3ccccc32)n1` (centres unmarked) [Compound 530, N-(4-amino-3,4-dioxo-1-phenylbutan-2-yl)-3-(1H-indazol-1-yl)-1-methyl-1H-pyrazole-4-carboxamide], the IC50 is under 3 µM in assay [1]; over 25 µM in assay [2]; under 3 µM in assay [3]; over 25 µM in assay [4]; under 3 µM in assay [5].

Take `NC(=O)C(=O)C(Cc1ccccc1)NC(=O)c1cnoc1-c1ccccc1` (centres unmarked) [Compound 531, N-(4-amino-3,4-dioxo-1-phenylbutan-2-yl)-5-phenylisoxazole-4-carboxamide]: the IC50 in assay [1] is under 3 µM; in assay [2], 10 to 25 µM; in assay [3], under 3 µM; in assay [4] it was over 25 µM; in assay [5], under 3 µM.

As for `NC(=O)C(=O)C(Cc1c[nH]c2ccccc12)NC(=O)c1nsnc1-c1ccccc1` (centres unmarked) [Compound 532, N-(4-amino-1-(1H-indol-3-yl)-3,4-dioxobutan-2-yl)-4-phenyl-1,2,5-thiadiazole-3-carboxamide], the IC50 in assay [1] was under 3 µM; in assay [2], under 10 µM; in assay [3], under 3 µM; in assay [4] it was under 10 µM; in assay [5], under 3 µM.

As for `NC(=O)C(=O)C(Cc1ccccc1)NC(=O)c1cn(C(F)F)nc1-c1cccc2c1OC(F)(F)O2` (centres unmarked) [Compound 546, N-(4-amino-3,4-dioxo-1-phenylbutan-2-yl)-3-(2,2-difluorobenzo[d][1,3]dioxol-4-yl)-1-(difluoromethyl)-1H-pyrazole-4-carboxamide], the IC50 in assay [1] was under 3 µM; in assay [2] it was under 10 µM; in assay [3], under 3 µM; in assay [4], under 10 µM; in assay [5] it was under 3 µM.
